Where a name gives a salt, the structure may show the parent alone.
Experiments:
5-HT7 receptor = 5-HT7 receptor (Homo sapiens, UniProt P34969); assay: in vitro binding to 5-HT7 receptor (screening protocol); details: read-out: Ki ± SD 5-HT7
Description: (§1) The ligands obtained in the synthesis (10a–r) were tested in vitro for binding to D2, 5-HT1A, 5-HT2A, 5-HT6, and 5-HT7 receptors on the basis of the screening protocol described previously (Table 6).

5-HT6 receptor = 5-HT6 receptor (Homo sapiens, UniProt P50406); assay: in vitro binding to 5-HT6 receptor (screening protocol); details: read-out: Ki ± SD 5-HT6
5-HT6 receptor, sequence (P50406 whole entry): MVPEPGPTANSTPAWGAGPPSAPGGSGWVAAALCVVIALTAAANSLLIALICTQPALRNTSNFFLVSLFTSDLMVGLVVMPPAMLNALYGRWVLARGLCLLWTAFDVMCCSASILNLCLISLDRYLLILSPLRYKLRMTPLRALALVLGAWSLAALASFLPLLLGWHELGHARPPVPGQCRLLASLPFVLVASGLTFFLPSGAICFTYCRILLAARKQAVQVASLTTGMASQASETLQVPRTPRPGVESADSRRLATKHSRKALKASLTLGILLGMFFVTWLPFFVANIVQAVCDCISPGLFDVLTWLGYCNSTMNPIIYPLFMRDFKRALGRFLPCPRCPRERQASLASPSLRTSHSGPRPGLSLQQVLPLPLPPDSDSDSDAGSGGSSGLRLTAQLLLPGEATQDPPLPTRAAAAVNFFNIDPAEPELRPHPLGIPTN
Description: as §1

D2 receptor = D2 receptor (Homo sapiens, UniProt P14416); assay: in vitro binding to D2 receptor (screening protocol); details: read-out: Ki ± SD D2
D2 receptor, sequence (P14416 whole entry): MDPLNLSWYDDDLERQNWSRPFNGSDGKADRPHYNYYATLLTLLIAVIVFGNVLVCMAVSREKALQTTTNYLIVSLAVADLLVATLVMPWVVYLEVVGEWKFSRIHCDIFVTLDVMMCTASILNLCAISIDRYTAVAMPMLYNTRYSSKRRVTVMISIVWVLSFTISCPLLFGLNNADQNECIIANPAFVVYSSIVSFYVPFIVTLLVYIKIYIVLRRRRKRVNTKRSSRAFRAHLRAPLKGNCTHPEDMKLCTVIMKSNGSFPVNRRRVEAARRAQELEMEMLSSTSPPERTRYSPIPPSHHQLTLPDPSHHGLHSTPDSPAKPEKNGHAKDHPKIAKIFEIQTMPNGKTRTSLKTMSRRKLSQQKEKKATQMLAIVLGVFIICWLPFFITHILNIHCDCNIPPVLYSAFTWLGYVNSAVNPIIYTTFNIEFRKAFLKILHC
Description: as §1

5-HT2A receptor = 5-HT2A receptor (Homo sapiens, UniProt P28223); assay: in vitro binding to 5-HT2A receptor (screening protocol); details: read-out: Ki ± SD 5-HT2A
5-HT2A receptor, sequence (P28223 whole entry): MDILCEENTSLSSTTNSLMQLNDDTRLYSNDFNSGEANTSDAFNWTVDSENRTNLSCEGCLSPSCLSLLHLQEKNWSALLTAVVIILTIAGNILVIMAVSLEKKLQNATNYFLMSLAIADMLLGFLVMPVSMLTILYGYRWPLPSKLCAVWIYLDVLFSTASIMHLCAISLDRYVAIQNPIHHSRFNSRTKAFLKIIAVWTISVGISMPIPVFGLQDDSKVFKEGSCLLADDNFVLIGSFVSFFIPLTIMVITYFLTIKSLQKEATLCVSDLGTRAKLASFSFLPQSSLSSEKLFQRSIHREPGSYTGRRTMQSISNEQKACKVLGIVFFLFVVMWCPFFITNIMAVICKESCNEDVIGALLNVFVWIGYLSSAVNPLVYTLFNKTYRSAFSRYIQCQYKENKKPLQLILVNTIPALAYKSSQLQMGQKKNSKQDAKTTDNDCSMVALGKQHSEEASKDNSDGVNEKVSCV
Description: as §1

5-HT1A receptor = target: T1, 5-HT1A receptor (Homo sapiens, UniProt P08908); assay: in vitro binding to 5-HT1A receptor (screening protocol); details: read-out: Ki ± SD 5-HT1A
T1 sequence (P08908 1-422): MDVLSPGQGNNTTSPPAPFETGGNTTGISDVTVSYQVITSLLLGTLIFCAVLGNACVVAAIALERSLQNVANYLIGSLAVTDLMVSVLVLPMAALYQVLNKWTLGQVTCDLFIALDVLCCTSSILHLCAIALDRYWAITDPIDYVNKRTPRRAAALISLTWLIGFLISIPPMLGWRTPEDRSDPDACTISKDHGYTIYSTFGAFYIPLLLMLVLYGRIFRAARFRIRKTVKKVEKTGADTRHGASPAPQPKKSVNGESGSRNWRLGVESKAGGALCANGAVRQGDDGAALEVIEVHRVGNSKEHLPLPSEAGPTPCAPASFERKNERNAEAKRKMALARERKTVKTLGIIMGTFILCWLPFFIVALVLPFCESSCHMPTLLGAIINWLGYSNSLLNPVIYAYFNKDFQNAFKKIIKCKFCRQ
Description: as §1

5-HT7 receptor, sequence (P34969 whole entry): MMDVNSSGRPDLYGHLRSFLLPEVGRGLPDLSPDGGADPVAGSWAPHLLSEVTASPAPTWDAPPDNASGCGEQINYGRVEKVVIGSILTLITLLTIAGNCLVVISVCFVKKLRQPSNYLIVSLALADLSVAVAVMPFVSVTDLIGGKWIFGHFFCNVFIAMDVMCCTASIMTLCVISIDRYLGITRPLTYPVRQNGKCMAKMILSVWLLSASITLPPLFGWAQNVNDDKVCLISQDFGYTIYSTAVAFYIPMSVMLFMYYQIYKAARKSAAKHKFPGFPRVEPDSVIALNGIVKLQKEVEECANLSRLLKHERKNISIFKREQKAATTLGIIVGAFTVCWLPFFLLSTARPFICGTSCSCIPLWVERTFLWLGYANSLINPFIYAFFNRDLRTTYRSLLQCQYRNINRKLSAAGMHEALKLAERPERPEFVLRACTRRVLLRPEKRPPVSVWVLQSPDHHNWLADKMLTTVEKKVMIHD

Structure (SMILES)	Ki (5-HT7 receptor)	Ki (5-HT6 receptor)	Ki (D2 receptor)	Ki (5-HT2A receptor)	Ki (5-HT1A receptor)
O=c1n(CCCN2CCN(c3cccc(Cl)c3Cl)CC2)nc2ccccn12 [10a, 2-[3-[4-(2,3-dichlorophenyl)piperazin-1-yl]propyl]-[1,2,4]triazolo[4,3-a]pyridin-3-one hydrochloride]	157 ± 13 nM	1430 ± 294 nM	116 ± 19 nM	181 ± 22 nM	
O=c1n(CCCN2CCN(c3ccccc3F)CC2)nc2ccccn12 [10b, 2-[3-[4-(2-fluorophenyl)piperazin-1-yl]propyl]-[1,2,4]triazolo[4,3-a]pyridin-3-one hydrochloride]	7420 ± 625 nM	36400 nM	1650 ± 203 nM	969 ± 114 nM	1550 ± 314 nM
O=c1n(CCCN2CCN(c3ncccn3)CC2)nc2ccccn12 [10c, 2-[3-(4-pyrimidin-2-ylpiperazin-1-yl)propyl]-[1,2,4]triazolo[4,3-a]pyridin-3-one hydrochloride]	174 ± 34 nM	3250 ± 401 nM	122 ± 8 nM	178 ± 25 nM	459 ± 36 nM
CCOc1ccccc1N1CCN(CCCn2nc3ccccn3c2=O)CC1 [10d, 2-[3-[4-(2-ethoxyphenyl)piperazin-1-yl]propyl]-[1,2,4]triazolo[4,3-a]pyridin-3-one hydrochloride]	539 ± 68 nM	9460 ± 1140 nM	152 ± 17 nM	6710 ± 952 nM	593 ± 81 nM
O=c1n(CCCCCCN2CCN(c3cccc(Cl)c3)CC2)nc2ccccn12 [10e, 2-[6-[4-(3-chlorophenyl)piperazin-1-yl]hexyl]-[1,2,4]triazolo[4,3-a]pyridin-3-one hydrochloride]	278 ± 19 nM	1940 ± 281 nM	137 ± 11 nM	342 ± 48 nM	16 ± 2 nM
O=c1n(CCCCCCN2CCN(c3ccccc3Cl)CC2)nc2ccccn12 [10f, 2-[6-[4-(2-chlorophenyl)piperazin-1-yl]hexyl]-[1,2,4]triazolo[4,3-a]pyridin-3-one hydrochloride]	2600 ± 359 nM	3570 ± 563 nM	522 ± 71 nM	2600 ± 318 nM	49 ± 4 nM
O=c1n(CCCCCCN2CCN(c3ccc(Cl)cc3)CC2)nc2ccccn12 [10g, 2-[6-[4-(4-chlorophenyl)piperazin-1-yl]hexyl]-[1,2,4]triazolo[4,3-a]pyridin-3-one hydrochloride]	435 ± 61 nM	2060 ± 173 nM	362 ± 17 nM	234 ± 46 nM	27 ± 3 nM
O=c1n(CCCCCCN2CCN(c3ccc(Cl)c(Cl)c3)CC2)nc2ccccn12 [10h, 2-[6-[4-(3,4-dichlorophenyl)piperazin-1-yl]hexyl]-[1,2,4]triazolo[4,3-a]pyridin-3-one hydrochloride]	196 ± 29 nM	576 ± 82 nM	310 ± 42 nM	77 ± 14 nM	19 ± 3 nM
O=c1n(CCCCCCN2CCN(c3ccccc3F)CC2)nc2ccccn12 [10i, 2-[6-[4-(2-fluorophenyl)piperazin-1-yl]hexyl]-[1,2,4]triazolo[4,3-a]pyridin-3-one hydrochloride]	993 ± 214 nM	4740 ± 687 nM	195 ± 11 nM	417 ± 52 nM	7 ± 2 nM
COc1ccccc1N1CCN(CCCCCCn2nc3ccccn3c2=O)CC1 [10j, 2-[6-[4-(2-methoxyphenyl)piperazin-1-yl]hexyl]-[1,2,4]triazolo[4,3-a]pyridin-3-one hydrochloride]	219 ± 36 nM	11500 nM	57 ± 6 nM	841 ± 105 nM	4 ± 1 nM
COc1cccc(N2CCN(CCCCCCn3nc4ccccn4c3=O)CC2)c1 [10k, 2-[6-[4-(3-methoxyphenyl)piperazin-1-yl]hexyl]-[1,2,4]triazolo[4,3-a]pyridin-3-one hydrochloride]	1020 ± 184 nM	3500 ± 537 nM	21 ± 3 nM	343 ± 21 nM	9 ± 2 nM
COc1ccc(N2CCN(CCCCCCn3nc4ccccn4c3=O)CC2)cc1 [10l, 2-[6-[4-(4-methoxyphenyl)piperazin-1-yl]hexyl]-[1,2,4]triazolo[4,3-a]pyridin-3-one hydrochloride]	8300 ± 1350 nM	5620 ± 743 nM	350 ± 54 nM	3900 ± 432 nM	826 ± 91 nM
CCOc1ccccc1N1CCN(CCCCCCn2nc3ccccn3c2=O)CC1 [10m, 2-[6-[4-(2-ethoxyphenyl)piperazin-1-yl]hexyl]-[1,2,4]triazolo[4,3-a]pyridin-3-one hydrochloride]	251 ± 52 nM	4820 ± 581 nM	1640 ± 219 nM	1540 ± 225 nM	9 ± 2 nM
O=c1n(CCCCCCN2CCN(c3ccccn3)CC2)nc2ccccn12 [10n, 2-[6-[4-(2-pyridyl)piperazin-1-yl]hexyl]-[1,2,4]triazolo[4,3-a]pyridin-3-one hydrochloride]	1050 ± 91 nM	4640 ± 341 nM	10 ± 2 nM	1720 ± 193 nM	18 ± 3 nM
O=c1n(CCCCCCN2CCN(c3ncccn3)CC2)nc2ccccn12 [10o, 2-[6-(4-pyrimidin-2-ylpiperazin-1-yl)hexyl]-[1,2,4]triazolo[4,3-a]pyridin-3-one hydrochloride]	5570 ± 438 nM	7220 ± 827 nM	202 ± 31 nM	10600 nM	104 ± 12 nM
O=c1n(CCCCCCN2CCN(c3ccccc3)CC2)nc2ccccn12 [10p, 2-[6-(4-phenylpiperazin-1-yl)hexyl]-[1,2,4]triazolo[4,3-a]pyridin-3-one hydrochloride]	404 ± 67 nM	3330 ± 197 nM	1530 ± 116 nM	391 ± 27 nM	28 ± 4 nM
O=c1n(CCCCCCN2CCN(c3ccccc3-c3ccccc3)CC2)nc2ccccn12 [10r, 2-[6-[4-(2-phenylphenyl)piperazin-1-yl]hexyl]-[1,2,4]triazolo[4,3-a]pyridin-3-one hydrochloride]	19 ± 3 nM	1190 ± 165 nM	191 ± 14 nM	328 ± 49 nM	20 ± 3 nM

Source: paper PMC6515286 (Molecules, 2019)
